From US10774094B2, “Crystal forms and salt forms of 7h-pyrrolo[2,3-d]pyrimidine compounds and preparation method thereof” (Wuxi Fortune Pharmaceutical Co., Ltd, priority 2016, dated 2020)

Columns and labels:
[1] = Technical effect statement on properties of the crystal forms (no method given); assay type: physicochemical
[2] = Solid stability tests of crystal form E under high temperature, high humidity and strong light (XRPD); assay type: physicochemical
Description: The vial in which the samples were placed at high temperature and high humidity was sealed with an aluminum foil, and small holes were formed in the aluminum foil to ensure that the samples were sufficiently contacted with atmospheric air; and the sample placed at strong light radiation was sealed with a threaded cap. The samples placed under different conditions were sampled and tested by XRPD on day 5 and day 10. The test results were compared with the initial test results on day 0.

[3] = Solubility tests of crystal form A in different solvents (manual stepwise dilution); assay type: physicochemical; conditions: for solubility: thermodynamic from solid, atmospheric temperature
Method: These solubility tests were carried out by manually stepwise dilution and simultaneous observation of dissolution at atmospheric temperature.

[4] = Stability tests of crystal form A in different solvents (40° C., 2 days, XRPD); assay type: physicochemical; conditions: for Results (crystal form of the solid by XRPD): 40° C., 2 days; for Appearance (2 days): stirred at 40° C. for 2 days
Method: The solids in all samples were collected and dried overnight in a vacuum drying oven (25° C.).

[5] = target: T1, Recombinant human JAK2 (Homo sapiens, UniProt O60674); assay: In-vitro activity test of JAK2 kinase (LANCE Ultra); assay type: biochemical
T1 construct: purchased Life technology
Method: (§1) Recombinant human JAK1, JAK2, and JAK3 […] were purchased from Life technology. LANCE Ultra ULight™-JAK-1 (Tyr1023) peptide and LANCE Eu-W1024 Anti-phosphotyrosine (PT66) both were purchased from PerkinElmer. The plates were read using a multiplex enzyme reader Envision (PerkinElmer).
(§2) The test compounds were subjected to 3-fold concentration gradient dilution to afford 11 final concentrations ranging from 10 uM to 0.17 nM; two wells were formed for each concentration; and the content of DMSO in the detection reaction was 1%.
(§3) 0.02 nM of JAK2 protein kinase, 50 nM of LANCE Ultra ULight™-JAK-1 (Tyr1023) peptide, 12 uM of ATP, 50 mM of HEPES (pH 7.5), 10 mM of MgCl2, 1 mM of EGTA, 2 mM of DTT, and 0.01% of BRIJ-35 were included. The assay plate was a White Proxiplate 384-Plus plate (PerkinElmer). The reaction was performed at room temperature for 60 minutes; and the reaction system was 10 ul.
(§4) 10 ul of the detection reagent was added to a reaction plate, wherein the final concentration of LANCE Eu-W1024 Anti-phosphotyrosine (PT66) was 2 nM, and the final concentration of EDTA was 10 mM. The reagents were incubated for 60 minutes at room temperature; and the plate was read with Envision instrument.
The reading was converted to an inhibition rate by the following formula: (%)=(Min−Ratio)/(Max−Min)*100%. IC50 data were measured by 4-parameter curve fitting (Model 205 in XLFIT5, iDBS). […]

[6] = target: T2, Recombinant human JAK1 (Homo sapiens, UniProt P23458); assay: In-vitro activity test of JAK1 kinase (LANCE Ultra); assay type: biochemical
T2 construct: purchased Life technology
Method: as §1, §2
as §3, with “2” for “0.02”, “JAK1” for “JAK2”, “38” for “12”, “90” for “60”
as §4
The reading was converted to an inhibition rate by the following formula: […]. IC50 data were measured by 4-parameter curve fitting (Model 205 in XLFIT5, iDBS). Seen Table 9 for details.

T2 sequence (P23458 whole entry): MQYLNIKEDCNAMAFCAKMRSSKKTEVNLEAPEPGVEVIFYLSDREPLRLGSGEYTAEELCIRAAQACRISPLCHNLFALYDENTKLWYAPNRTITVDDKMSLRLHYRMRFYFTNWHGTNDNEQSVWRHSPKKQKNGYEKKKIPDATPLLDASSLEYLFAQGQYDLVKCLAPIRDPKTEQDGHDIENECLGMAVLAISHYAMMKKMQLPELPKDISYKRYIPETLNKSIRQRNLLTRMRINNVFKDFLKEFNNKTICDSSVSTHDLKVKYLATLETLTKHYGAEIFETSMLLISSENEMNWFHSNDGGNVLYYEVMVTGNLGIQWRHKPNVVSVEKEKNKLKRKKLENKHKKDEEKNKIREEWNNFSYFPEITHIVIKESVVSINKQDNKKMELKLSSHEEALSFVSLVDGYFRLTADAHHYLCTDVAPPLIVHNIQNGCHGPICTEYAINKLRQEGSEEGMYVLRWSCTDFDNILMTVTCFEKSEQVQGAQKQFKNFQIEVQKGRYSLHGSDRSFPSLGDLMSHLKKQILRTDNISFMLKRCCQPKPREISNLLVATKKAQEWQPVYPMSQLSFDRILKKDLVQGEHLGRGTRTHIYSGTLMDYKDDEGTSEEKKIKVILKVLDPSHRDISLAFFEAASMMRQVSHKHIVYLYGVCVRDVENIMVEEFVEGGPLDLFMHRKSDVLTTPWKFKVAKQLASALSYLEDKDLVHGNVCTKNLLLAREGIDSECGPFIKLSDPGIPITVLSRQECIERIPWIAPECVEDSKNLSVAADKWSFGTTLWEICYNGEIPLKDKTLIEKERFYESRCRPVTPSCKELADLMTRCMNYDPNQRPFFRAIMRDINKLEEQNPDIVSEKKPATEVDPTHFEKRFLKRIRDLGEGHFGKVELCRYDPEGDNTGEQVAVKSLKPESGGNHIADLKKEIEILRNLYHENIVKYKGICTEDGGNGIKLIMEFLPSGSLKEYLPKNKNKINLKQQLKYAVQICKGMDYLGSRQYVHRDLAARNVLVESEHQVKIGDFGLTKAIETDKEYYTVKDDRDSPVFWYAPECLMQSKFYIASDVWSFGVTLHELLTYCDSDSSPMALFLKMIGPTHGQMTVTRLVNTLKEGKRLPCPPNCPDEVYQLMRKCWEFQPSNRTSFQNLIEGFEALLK
T1 sequence (O60674 whole entry): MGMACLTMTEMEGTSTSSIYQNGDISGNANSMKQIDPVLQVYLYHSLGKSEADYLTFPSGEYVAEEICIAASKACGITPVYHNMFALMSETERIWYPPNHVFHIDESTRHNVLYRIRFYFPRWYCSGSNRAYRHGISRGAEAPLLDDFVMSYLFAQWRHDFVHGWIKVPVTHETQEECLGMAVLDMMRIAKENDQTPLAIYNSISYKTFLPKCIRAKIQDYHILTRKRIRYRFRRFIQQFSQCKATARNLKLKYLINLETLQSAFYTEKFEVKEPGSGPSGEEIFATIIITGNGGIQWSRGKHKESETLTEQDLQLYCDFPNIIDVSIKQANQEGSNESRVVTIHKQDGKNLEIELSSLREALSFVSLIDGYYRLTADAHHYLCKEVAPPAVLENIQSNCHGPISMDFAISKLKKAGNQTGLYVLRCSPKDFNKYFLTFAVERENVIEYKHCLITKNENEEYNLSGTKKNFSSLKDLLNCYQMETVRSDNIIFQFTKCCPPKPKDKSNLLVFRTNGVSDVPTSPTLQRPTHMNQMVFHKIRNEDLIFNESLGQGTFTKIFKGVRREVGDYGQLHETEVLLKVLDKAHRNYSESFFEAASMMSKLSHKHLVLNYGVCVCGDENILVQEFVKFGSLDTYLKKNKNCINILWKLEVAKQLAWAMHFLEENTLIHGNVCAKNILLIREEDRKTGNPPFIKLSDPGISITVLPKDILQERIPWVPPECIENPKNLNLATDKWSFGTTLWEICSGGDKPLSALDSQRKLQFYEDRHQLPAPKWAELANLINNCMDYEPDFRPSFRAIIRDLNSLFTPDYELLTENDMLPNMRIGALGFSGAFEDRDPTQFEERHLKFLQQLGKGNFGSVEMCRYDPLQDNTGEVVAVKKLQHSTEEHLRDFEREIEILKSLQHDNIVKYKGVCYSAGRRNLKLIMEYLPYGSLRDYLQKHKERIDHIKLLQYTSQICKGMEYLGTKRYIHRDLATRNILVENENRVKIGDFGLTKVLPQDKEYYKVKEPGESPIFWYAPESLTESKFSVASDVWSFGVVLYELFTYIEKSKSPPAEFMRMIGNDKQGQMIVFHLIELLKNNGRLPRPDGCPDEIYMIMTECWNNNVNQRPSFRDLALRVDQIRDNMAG

CN(c1ncnc2[nH]ccc12)[C@@H]1CCn2cc(C#N)nc2C1.O=C(O)C(F)(F)F [crystal form F of the compound 3]
hygroscopicity (in words) [1]: low hygroscopicity | stability (in words) [1]: stable properties | water solubility (in words) [1]: excellent water solubility

CN(c1ncnc2[nH]ccc12)[C@@H]1CCn2cc(C#N)nc2C1.Cc1ccc(S(=O)(=O)O)cc1 [Crystal Form E of Compound 2]
XRPD ([2]; High humidity (room temperature/relative humidity 92.5%, open), day 5): Crystal form E | Appearance ([2]; High humidity (room temperature/relative humidity 92.5%, open), day 5 and day 10): White powder | XRPD ([2]; High humidity (room temperature/relative humidity 92.5%, open), day 10): Crystal form E | XRPD ([2]; High temperature (60° C., open), day 5): Crystal form E | Appearance ([2]; High temperature (60° C., open), day 5 and day 10): White powder | XRPD ([2]; High temperature (60° C., open), day 10): Crystal form E | XRPD ([2]; Strong light radiation (5000 lx, close), day 5): Crystal form E | Appearance ([2]; Strong light radiation (5000 lx, close), day 5 and day 10): White powder | XRPD ([2]; Strong light radiation (5000 lx, close), day 10): Crystal form E | Appearance ([2]; day 0 (initial)): White powder | XRPD ([2]; day 0 (initial)): Crystal form E | hygroscopicity (in words) [1]: low hygroscopicity | stability (in words) [1]: stable properties | water solubility (in words) [1]: excellent water solubility

CN(c1ncnc2[nH]ccc12)[C@@H]1CCn2cc(C#N)nc2C1 [Crystal Form A of Compound 1]
Solubility conclusion ([3]; 1,4-dioxane): Slightly soluble/very | Solubility conclusion ([3]; 2-methyltetrahydrofuran): Slightly soluble/very | Solubility conclusion ([3]; Acetone): Slightly soluble/very | Solubility conclusion ([3]; Acetone-water (1:2)): Slightly soluble/very | Solubility conclusion ([3]; Acetonitrile): Slightly soluble/very | Solubility conclusion ([3]; Acetonitrile-water (1:1)): Slightly soluble/very | Solubility conclusion ([3]; Cyclohexane): Slightly soluble/very | Solubility conclusion ([3]; Ethanol): Slightly soluble/very | Solubility conclusion ([3]; Ethanol-water (1:1)): Slightly soluble/very | Solubility conclusion ([3]; Ethanol-water (3:1)): Slightly soluble/very | Solubility conclusion ([3]; Ethyl acetate): Slightly soluble/very | Solubility conclusion ([3]; Heptane): Slightly soluble/very | Solubility conclusion ([3]; Isopropanol): Slightly soluble/very | Solubility conclusion ([3]; Isopropyl acetate): Slightly soluble/very | Solubility conclusion ([3]; Isopropyl alcohol-water (1:1)): Slightly soluble/very | Solubility conclusion ([3]; Methanol): Slightly soluble/very | Solubility conclusion ([3]; Methanol-water (1:1)): Slightly soluble/very | Solubility conclusion ([3]; Methanol-water (3:1)): Slightly soluble/very | Solubility conclusion ([3]; Methyl ethyl ketone): Slightly soluble/very | Solubility conclusion ([3]; Methyl isobutyl ketone): Slightly soluble/very | Solubility conclusion ([3]; Methyl tert-butyl ether): Slightly soluble/very | Solubility conclusion ([3]; N-butanol): Slightly soluble/very | Solubility conclusion ([3]; Tetrahydrofuran): Slightly soluble/very | Solubility conclusion ([3]; Toluene): Slightly soluble/very | Solubility conclusion ([3]; Water): Slightly soluble/very | solubility ([3]; aqueous with cosolvent or surfactant or cyclodextrin, Acetone-water (1:2)): < 2000 µg/mL | solubility ([3]; aqueous with cosolvent or surfactant or cyclodextrin, Acetonitrile-water (1:1)): < 2000 µg/mL | solubility ([3]; aqueous with cosolvent or surfactant or cyclodextrin, Ethanol-water (1:1)): < 2000 µg/mL | solubility ([3]; aqueous with cosolvent or surfactant or cyclodextrin, Ethanol-water (3:1)): < 2000 µg/mL | solubility ([3]; aqueous with cosolvent or surfactant or cyclodextrin, Isopropyl alcohol-water (1:1)): < 2000 µg/mL | solubility ([3]; aqueous with cosolvent or surfactant or cyclodextrin, Methanol-water (1:1)): < 2000 µg/mL | solubility ([3]; aqueous with cosolvent or surfactant or cyclodextrin, Methanol-water (3:1)): < 2000 µg/mL | solubility ([3]; organic solvent or mixture, 1,4-dioxane): < 2000 µg/mL | solubility ([3]; organic solvent or mixture, 2-methyltetrahydrofuran): < 2000 µg/mL | solubility ([3]; organic solvent or mixture, Acetone): < 2000 µg/mL | solubility ([3]; organic solvent or mixture, Acetonitrile): < 2000 µg/mL | solubility ([3]; organic solvent or mixture, Cyclohexane): < 2000 µg/mL | solubility ([3]; organic solvent or mixture, Ethanol): < 2000 µg/mL | solubility ([3]; organic solvent or mixture, Ethyl acetate): < 2000 µg/mL | solubility ([3]; organic solvent or mixture, Heptane): < 2000 µg/mL | solubility ([3]; organic solvent or mixture, Isopropanol): < 2000 µg/mL | solubility ([3]; organic solvent or mixture, Isopropyl acetate): < 2000 µg/mL | solubility ([3]; organic solvent or mixture, Methanol): < 2000 µg/mL | solubility ([3]; organic solvent or mixture, Methyl ethyl ketone): < 2000 µg/mL | solubility ([3]; organic solvent or mixture, Methyl isobutyl ketone): < 2000 µg/mL | solubility ([3]; organic solvent or mixture, Methyl tert-butyl ether): < 2000 µg/mL | solubility ([3]; organic solvent or mixture, N-butanol): < 2000 µg/mL | solubility ([3]; organic solvent or mixture, Tetrahydrofuran): < 2000 µg/mL | solubility ([3]; organic solvent or mixture, Toluene): < 2000 µg/mL | solubility ([3]; Water): < 2000 µg/mL | hygroscopicity (in words) [1]: low hygroscopicity | stability (in words) [1]: stable properties | water solubility (in words) [1]: excellent water solubility | Results (crystal form of the solid by XRPD) ([4]; Acetone-water (1:2)): Crystal form A | Appearance (2 days) ([4]; Acetone-water (1:2)): Suspension | Results (crystal form of the solid by XRPD) ([4]; Acetone): Crystal form A | Appearance (2 days) ([4]; Acetone): Suspension | Results (crystal form of the solid by XRPD) ([4]; Ethanol-water (3:1)): Crystal form A | Appearance (2 days) ([4]; Ethanol-water (3:1)): Suspension | Results (crystal form of the solid by XRPD) ([4]; Ethanol): Crystal form A | Appearance (2 days) ([4]; Ethanol): Suspension | Results (crystal form of the solid by XRPD) ([4]; Ethyl acetate): Crystal form A | Appearance (2 days) ([4]; Ethyl acetate): Suspension | Results (crystal form of the solid by XRPD) ([4]; Isopropanol): Crystal form A | Appearance (2 days) ([4]; Isopropanol): Suspension | Results (crystal form of the solid by XRPD) ([4]; Isopropyl alcohol-water (1:1)): Crystal form A | Appearance (2 days) ([4]; Isopropyl alcohol-water (1:1)): Suspension | Results (crystal form of the solid by XRPD) ([4]; Methanol-water (3:1)): Crystal form A | Appearance (2 days) ([4]; Methanol-water (3:1)): Suspension | Results (crystal form of the solid by XRPD) ([4]; Methanol): Crystal form A | Appearance (2 days) ([4]; Methanol): Suspension | Results (crystal form of the solid by XRPD) ([4]; Tetrahydrofuran): Crystal form A | Appearance (2 days) ([4]; Tetrahydrofuran): Suspension

CN(c1ncnc2[nH]ccc12)[C@@H]1CCn2cc(C#N)nc2C1 (single isomer, unassigned) [Compound 1, 7-[methyl-[7-hydropyrrolo[2,3-d]pyrimidin-4-yl]amino]-5,6,7,8-tetrahydroimidazo[1,2-a]pyridin-2-nitrile]
inhibitory activity against JAK2 (in words) [5]: relatively weak inhibitory activity | IC50 ([5]; 12 uM ATP, 60 minutes, room temperature): 10 to 100 nM | inhibitory activity against JAK1 (in words) [6]: strong inhibitory activity | selective inhibition (JAK1 versus JAK2, in words) [6]: better selective inhibition for JAK | IC50 ([6]; 38 uM ATP, 90 minutes, room temperature): ≤ 10 nM
